Data as given in ChEMBL document CHEMBL5352421, “Identification of novel piperazine-tethered phthalazines as selective CDK1 inhibitors endowed with in vitro anticancer activity toward the pancreatic cancer” (Eur J Med Chem, 2022).

Key:
[1] = biological target: Cyclin-dependent kinase 2 (Homo sapiens, UniProt P24941); test: Inhibition of CDK2 (unknown origin) by FRET assay
G-361 = test: Antiproliferative activity against human G-361 cells assessed as growth inhibition incubated at 10 uM for 24 hrs by MTT assay relative to control; format: functional; conditions: read-out: GI
[2] = biological target: Insulin-like growth factor 1 receptor (Homo sapiens, UniProt P08069); test: Inhibition of IGF1R (unknown origin) by FRET assay
Insulin-like growth factor 1 receptor, sequence (P08069 31-736 limits assumed): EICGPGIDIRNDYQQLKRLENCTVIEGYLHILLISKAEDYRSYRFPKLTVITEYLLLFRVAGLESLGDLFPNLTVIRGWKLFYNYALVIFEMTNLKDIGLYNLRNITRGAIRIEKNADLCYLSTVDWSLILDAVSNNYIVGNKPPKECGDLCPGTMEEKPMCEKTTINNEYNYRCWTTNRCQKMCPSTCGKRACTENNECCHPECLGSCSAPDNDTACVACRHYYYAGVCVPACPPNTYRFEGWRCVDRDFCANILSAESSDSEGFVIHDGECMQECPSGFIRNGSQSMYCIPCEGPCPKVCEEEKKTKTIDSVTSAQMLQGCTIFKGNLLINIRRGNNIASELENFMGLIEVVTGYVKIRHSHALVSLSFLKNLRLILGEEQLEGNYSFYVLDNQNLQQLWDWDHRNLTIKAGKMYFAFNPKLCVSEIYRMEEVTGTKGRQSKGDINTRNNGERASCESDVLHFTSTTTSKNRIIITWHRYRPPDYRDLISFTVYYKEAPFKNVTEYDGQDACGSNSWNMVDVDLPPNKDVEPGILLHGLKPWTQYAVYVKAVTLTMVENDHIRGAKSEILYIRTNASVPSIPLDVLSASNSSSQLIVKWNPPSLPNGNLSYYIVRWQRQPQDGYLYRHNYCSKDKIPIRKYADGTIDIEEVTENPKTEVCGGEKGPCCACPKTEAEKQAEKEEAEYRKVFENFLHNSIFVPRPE
Insulin-like growth factor 1 receptor, sequence (P08069 741-1367 limits assumed): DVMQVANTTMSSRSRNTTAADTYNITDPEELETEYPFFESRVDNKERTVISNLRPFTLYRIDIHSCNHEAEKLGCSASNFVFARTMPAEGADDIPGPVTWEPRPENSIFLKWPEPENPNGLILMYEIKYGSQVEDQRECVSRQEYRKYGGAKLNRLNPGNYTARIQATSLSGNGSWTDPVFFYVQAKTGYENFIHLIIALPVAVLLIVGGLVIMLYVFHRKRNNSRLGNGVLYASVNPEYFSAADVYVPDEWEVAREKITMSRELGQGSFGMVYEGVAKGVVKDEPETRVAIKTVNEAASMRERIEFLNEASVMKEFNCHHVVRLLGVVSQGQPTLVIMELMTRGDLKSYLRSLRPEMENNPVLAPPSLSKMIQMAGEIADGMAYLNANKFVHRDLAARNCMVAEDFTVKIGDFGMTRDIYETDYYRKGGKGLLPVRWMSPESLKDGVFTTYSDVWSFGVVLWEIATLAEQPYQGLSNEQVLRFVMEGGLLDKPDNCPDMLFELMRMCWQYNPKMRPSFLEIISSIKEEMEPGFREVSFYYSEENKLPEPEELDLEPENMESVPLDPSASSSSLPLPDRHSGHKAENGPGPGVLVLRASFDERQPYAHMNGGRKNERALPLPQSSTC

MOLT-4 = test: Antiproliferative activity against human MOLT-4 cells assessed as growth inhibition incubated at 10 uM for 24 hrs by MTT assay relative to control; format: functional; conditions: read-out: GI
KG-1 = test: Antiproliferative activity against human KG-1 cells assessed as growth inhibition incubated at 10 uM for 24 hrs by MTT assay relative to control; format: functional; conditions: read-out: GI
[3] = Antiproliferative activity against human MDA-PATC53 cells assessed as growth inhibition incubated for 24 hrs by MTT assay; format: functional, cell-based; conditions: MDA-PATC53, 24 h
[4] = Antiproliferative activity against human PL45 cells assessed as growth inhibition incubated for 24 hrs by MTT assay; format: functional, cell-based; conditions: PL45, 24 h
[5] = Antiproliferative activity against human MDA-PATC53 cells assessed as growth inhibition incubated at 10 uM for 24 hrs by MTT assay relative to control; format: functional; conditions: read-out: GI
[6] = biological target: Protein-tyrosine kinase 2-beta (Homo sapiens, UniProt Q14289); test: Inhibition of PTK2B (unknown origin) by FRET assay
Protein-tyrosine kinase 2-beta, sequence (Q14289 whole entry): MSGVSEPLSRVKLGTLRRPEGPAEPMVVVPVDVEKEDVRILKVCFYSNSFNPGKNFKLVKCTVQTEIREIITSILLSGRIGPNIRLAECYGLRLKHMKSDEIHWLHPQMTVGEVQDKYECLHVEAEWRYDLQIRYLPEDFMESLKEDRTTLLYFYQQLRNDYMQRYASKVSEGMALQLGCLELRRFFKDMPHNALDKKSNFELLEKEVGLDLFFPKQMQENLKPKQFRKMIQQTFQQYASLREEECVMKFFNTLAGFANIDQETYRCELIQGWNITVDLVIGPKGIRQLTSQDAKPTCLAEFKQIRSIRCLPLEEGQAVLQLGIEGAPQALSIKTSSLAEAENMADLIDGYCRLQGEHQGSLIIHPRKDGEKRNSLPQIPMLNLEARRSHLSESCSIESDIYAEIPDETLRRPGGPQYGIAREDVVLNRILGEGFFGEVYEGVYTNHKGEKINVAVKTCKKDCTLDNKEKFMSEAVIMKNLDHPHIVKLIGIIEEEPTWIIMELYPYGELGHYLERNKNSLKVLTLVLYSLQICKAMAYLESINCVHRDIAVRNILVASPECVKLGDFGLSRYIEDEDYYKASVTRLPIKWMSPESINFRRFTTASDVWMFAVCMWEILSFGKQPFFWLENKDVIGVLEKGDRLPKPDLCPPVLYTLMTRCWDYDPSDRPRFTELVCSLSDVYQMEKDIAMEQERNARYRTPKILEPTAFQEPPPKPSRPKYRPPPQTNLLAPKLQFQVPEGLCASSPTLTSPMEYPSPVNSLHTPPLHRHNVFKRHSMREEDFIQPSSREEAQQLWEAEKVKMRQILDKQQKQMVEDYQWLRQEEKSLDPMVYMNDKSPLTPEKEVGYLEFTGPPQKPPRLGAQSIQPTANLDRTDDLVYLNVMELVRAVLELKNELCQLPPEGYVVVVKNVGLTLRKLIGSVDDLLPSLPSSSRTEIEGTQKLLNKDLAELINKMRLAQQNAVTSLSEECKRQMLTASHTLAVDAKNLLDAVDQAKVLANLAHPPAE

A-375 = test: Antiproliferative activity against human A-375 cells assessed as growth inhibition incubated at 10 uM for 24 hrs by MTT assay relative to control; format: functional; conditions: read-out: GI
[7] = biological target: Fibroblast growth factor receptor (Homo sapiens, UniProt P22607+P11362+P22455+P21802); test: Inhibition of FGFR (unknown origin) by FRET assay; format: protein assay
MCF7 = test: Antiproliferative activity against human MCF7 cells assessed as growth inhibition incubated at 10 uM for 24 hrs by MTT assay relative to control; format: functional; conditions: read-out: GI
[8] = biological target: Cyclin-dependent kinase 1 (Homo sapiens, UniProt P06493); test: Inhibition of CDK1 (unknown origin) by FRET assay
Cyclin-dependent kinase 1, sequence (P06493 whole entry): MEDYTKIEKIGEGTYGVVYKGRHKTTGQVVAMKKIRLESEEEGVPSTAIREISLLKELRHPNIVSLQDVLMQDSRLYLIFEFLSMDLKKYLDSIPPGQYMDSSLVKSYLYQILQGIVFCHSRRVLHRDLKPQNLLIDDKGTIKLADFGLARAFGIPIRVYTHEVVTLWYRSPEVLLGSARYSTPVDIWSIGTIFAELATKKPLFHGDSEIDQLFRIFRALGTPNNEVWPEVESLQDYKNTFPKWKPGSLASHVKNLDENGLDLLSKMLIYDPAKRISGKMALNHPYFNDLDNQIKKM

[9] = biological target: Serine/threonine-protein kinase B-raf (Homo sapiens, UniProt P15056); test: Inhibition of BRAF (unknown origin) by FRET assay
Serine/threonine-protein kinase B-raf, sequence (P15056 whole entry): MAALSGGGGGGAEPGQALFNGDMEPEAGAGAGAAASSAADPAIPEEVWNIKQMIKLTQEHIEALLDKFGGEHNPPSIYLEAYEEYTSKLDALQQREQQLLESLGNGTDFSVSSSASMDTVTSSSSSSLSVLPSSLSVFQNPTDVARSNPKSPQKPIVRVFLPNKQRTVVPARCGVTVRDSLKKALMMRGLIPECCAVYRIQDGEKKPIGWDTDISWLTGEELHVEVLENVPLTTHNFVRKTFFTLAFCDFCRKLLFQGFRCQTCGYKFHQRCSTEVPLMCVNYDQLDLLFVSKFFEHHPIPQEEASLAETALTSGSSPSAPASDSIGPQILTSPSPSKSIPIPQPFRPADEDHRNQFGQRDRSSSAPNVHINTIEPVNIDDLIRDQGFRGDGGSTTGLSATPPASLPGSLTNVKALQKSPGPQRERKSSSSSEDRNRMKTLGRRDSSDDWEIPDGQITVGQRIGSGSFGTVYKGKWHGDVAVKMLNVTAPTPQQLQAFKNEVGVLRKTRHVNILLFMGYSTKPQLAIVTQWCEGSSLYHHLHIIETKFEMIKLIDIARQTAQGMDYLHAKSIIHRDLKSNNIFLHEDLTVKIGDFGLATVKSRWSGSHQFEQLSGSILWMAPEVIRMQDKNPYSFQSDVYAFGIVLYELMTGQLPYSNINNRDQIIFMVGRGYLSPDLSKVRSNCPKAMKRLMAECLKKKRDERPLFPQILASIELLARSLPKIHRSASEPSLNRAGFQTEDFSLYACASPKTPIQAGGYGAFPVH

BT-549 = test: Antiproliferative activity against human BT-549 cells assessed as growth inhibition incubated at 10 uM for 24 hrs by MTT assay relative to control; format: functional; conditions: read-out: GI
[10] = Selectivity index, ratio of IC50 for CDK5 (unknown origin) to CDK1 (unknown origin)
SK-MEL-1 = test: Antiproliferative activity against human SK-MEL-1 cells assessed as growth inhibition incubated at 10 uM for 24 hrs by MTT assay relative to control; format: functional; conditions: read-out: GI
[11] = Selectivity index, ratio of IC50 for CDK2 (unknown origin) to CDK1 (unknown origin)
[12] = biological target: T1, Tyrosine-protein kinase receptor UFO (Homo sapiens, UniProt P30530); test: Inhibition of AXL (unknown origin) by FRET assay
T1 sequence (P30530 whole entry): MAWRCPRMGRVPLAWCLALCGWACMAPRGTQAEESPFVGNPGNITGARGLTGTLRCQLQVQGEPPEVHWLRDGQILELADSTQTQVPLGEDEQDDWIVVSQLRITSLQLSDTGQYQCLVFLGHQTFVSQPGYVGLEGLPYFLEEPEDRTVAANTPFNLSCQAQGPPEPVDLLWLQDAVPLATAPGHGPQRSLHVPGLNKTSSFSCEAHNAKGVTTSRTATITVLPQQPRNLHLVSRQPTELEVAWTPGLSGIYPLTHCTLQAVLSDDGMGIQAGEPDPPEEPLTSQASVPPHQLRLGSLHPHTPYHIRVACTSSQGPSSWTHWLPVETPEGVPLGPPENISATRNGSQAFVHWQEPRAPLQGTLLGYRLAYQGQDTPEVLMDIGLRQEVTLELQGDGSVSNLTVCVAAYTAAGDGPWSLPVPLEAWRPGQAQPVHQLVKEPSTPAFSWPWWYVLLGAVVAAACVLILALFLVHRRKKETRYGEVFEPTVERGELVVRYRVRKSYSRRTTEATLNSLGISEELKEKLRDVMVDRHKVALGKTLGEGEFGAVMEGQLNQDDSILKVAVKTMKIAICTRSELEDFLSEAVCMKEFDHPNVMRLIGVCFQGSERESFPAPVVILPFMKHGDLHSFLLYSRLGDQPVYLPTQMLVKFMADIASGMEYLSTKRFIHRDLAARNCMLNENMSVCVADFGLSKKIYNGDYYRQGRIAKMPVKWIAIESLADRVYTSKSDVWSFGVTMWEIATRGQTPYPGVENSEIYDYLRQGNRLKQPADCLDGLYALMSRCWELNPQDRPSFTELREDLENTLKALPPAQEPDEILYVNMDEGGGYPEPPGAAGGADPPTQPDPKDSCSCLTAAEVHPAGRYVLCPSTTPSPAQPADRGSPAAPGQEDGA

[13] = biological target: Tyrosine-protein kinase JAK1 (Homo sapiens, UniProt P23458); test: Inhibition of JAK1 (unknown origin) by FRET assay
Tyrosine-protein kinase JAK1, sequence (P23458 whole entry): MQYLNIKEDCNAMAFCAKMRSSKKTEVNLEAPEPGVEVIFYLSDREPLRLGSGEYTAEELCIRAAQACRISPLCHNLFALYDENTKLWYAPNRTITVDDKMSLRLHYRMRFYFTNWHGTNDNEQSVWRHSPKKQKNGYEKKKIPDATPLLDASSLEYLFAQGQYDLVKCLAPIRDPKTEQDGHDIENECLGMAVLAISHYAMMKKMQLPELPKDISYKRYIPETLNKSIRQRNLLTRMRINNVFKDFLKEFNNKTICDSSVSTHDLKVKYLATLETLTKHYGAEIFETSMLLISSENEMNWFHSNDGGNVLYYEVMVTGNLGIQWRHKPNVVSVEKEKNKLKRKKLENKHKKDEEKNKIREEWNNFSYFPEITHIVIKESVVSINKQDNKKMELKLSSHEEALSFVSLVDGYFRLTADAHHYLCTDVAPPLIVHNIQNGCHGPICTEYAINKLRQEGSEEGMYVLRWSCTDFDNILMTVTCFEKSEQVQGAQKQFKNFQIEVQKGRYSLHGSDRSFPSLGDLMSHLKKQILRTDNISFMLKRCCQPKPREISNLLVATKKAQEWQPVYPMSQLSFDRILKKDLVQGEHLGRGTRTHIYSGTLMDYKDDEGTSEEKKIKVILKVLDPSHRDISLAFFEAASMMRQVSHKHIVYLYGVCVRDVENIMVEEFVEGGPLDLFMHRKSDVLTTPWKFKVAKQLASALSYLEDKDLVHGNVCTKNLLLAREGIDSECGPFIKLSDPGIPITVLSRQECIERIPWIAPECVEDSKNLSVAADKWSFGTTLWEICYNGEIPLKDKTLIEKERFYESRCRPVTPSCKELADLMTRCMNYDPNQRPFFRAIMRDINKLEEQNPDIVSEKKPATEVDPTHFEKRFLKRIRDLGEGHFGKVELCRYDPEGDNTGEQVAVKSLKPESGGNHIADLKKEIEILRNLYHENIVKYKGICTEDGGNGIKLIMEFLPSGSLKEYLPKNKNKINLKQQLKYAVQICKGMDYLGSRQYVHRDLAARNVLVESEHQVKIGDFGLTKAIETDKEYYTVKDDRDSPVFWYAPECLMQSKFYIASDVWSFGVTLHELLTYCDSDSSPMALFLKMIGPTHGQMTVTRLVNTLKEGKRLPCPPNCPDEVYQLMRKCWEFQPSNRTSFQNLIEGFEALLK

[14] = Antiproliferative activity against human PL45 cells assessed as growth inhibition incubated at 10 uM for 24 hrs by MTT assay relative to control; format: functional; conditions: read-out: GI
T84 = test: Antiproliferative activity against human T84 cells assessed as growth inhibition incubated at 10 uM for 24 hrs by MTT assay relative to control; format: functional; conditions: read-out: GI
HT-29 = test: Antiproliferative activity against human HT-29 cells assessed as growth inhibition incubated at 10 uM for 24 hrs by MTT assay relative to control; format: functional; conditions: read-out: GI
[15] = biological target: Cyclin-dependent kinase 5 (Homo sapiens, UniProt Q00535); test: Inhibition of CDK5 (unknown origin) by FRET assay
Cyclin-dependent kinase 5, sequence (Q00535 whole entry): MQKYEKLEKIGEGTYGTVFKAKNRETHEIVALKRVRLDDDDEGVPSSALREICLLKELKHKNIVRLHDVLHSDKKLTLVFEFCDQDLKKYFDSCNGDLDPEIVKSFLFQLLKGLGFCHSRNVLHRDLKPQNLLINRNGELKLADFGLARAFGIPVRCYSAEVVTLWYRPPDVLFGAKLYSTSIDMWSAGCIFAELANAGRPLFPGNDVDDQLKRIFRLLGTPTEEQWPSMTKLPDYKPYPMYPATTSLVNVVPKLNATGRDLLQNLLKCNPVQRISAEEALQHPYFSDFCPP

Row | IC50 [1] [µM] | IC50 [2] [µM] | IC50 [6] [µM] | IC50 [7] [µM] | IC50 [8] [µM] | IC50 [9] [µM] | Ratio IC50 [10] | Ratio IC50 [11] | IC50 [12] [µM] | IC50 [13] [µM] | Compound | inhibition of growth at 10 µM (G-361) [%] | inhibition of growth at 10 µM (MOLT-4) [%] | inhibition of growth at 10 µM (KG-1) [%] | IC50 [3] [µM] | IC50 [4] [µM] | inhibition of growth at 10 µM [5] [%] | inhibition of growth at 10 µM (A-375) [%] | inhibition of growth at 10 µM (MCF7) [%] | inhibition of growth at 10 µM (BT-549) [%] | inhibition of growth at 10 µM (SK-MEL-1) [%] | further results
1 | 0.722 | 4.25 | 2.68 | 8.565 | 0.104 | 1.48 | 3.91 | 6.97 | 6.95 | 5.18 | O=C(Nc1ccc(Cl)c(C(F)(F)F)c1)N1CCN(c2nnc(Cc3ccccc3)c3ccccc23)CC1 | 2.47 | 5.22 | 1.35 | 8.6 | 13.1 | 55.4 | 9.17 | 2.2 | 1.08 | 3.34 | inhibition of growth at 10 µM [14]: 42.4%; inhibition of growth at 10 µM (T84): 4.71%; inhibition of growth at 10 µM (HT-29): 18.9%; IC50 [15]: 0.405 µM
2 | 0.308 | 8.63 | 3.64 | 5.517 | 0.126 | 4.49 | 3.94 | 2.43 | 4.42 | 2.54 | COc1ccc(NC(=S)N2CCN(c3nnc(Cc4ccccc4)c4ccccc34)CC2)cc1 | 24.6 | 14.2 | 1.36 | 10.2 | 12.5 | 49 | 11.2 | 10.1 | 8.65 | 6.64 | inhibition of growth at 10 µM [14]: 49.6%; inhibition of growth at 10 µM (T84): 9.67%; inhibition of growth at 10 µM (HT-29): 21.9%; IC50 [15]: 0.498 µM
3 | 0.455 | 1.53 | 4.33 | 6.332 | 0.091 | 3.26 | 4.3 | 5 | 5.49 | 5.6 | COc1ccc(Cc2nnc(N3CCN(C(=O)c4ccccc4)CC3)c3ccccc23)cc1 | 8.66 | 9.47 | 12.1 | 4.07 | 12.9 | 70.4 | 10.3 | 11.4 | 19 | 2.02 | inhibition of growth at 10 µM [14]: 44.6%; inhibition of growth at 10 µM (T84): 18.3%; inhibition of growth at 10 µM (HT-29): 5.09%; IC50 [15]: 0.391 µM
4 | 0.341 | 6.3 | 5.21 | 5.278 | 0.109 | 4.99 | 3.29 | 3.13 | 3.63 | 6.61 | S=C(Nc1ccc(Cl)cc1)N1CCN(c2nnc(Cc3ccccc3)c3ccccc23)CC1 | 1.08 | 19.6 | 8.92 | 11.9 | 6.75 | 49.3 | 8.39 | 7.64 | 18.6 | 5.4 | inhibition of growth at 10 µM [14]: 64.1%; inhibition of growth at 10 µM (T84): 12.2%; inhibition of growth at 10 µM (HT-29): 10.8%; IC50 [15]: 0.358 µM
5 | 0.301 | 4.08 | 6.38 | 8.605 | 0.0831 | 4.67 | 7.29 | 3.62 | 1.52 | 5.55 | COc1ccc(C(=O)N2CCN(c3nnc(Cc4ccccc4)c4ccccc34)CC2)cc1 | 3.45 | 1.02 | 0.91 | 14.3 | 4.85 | 42 | 5.3 | 4.09 | 5.26 | 11.8 | inhibition of growth at 10 µM [14]: 66.7%; inhibition of growth at 10 µM (T84): 2%; inhibition of growth at 10 µM (HT-29): 1.58%; IC50 [15]: 0.606 µM
6 | 0.103 | 3.15 | 1.33 | 6.346 | 0.0584 | 3.65 | 14.2 | 1.76 | 8.75 | 4.55 | O=C(Nc1ccc(Cl)cc1)N1CCN(c2nnc(Cc3ccccc3)c3ccccc23)CC1 | 47 | 33 | 57.9 | 5.3 | 2.21 | 67.4 | 66.3 | 64.8 | 23 | 50.1 | inhibition of growth at 10 µM [14]: 81.8%; inhibition of growth at 10 µM (T84): 29.4%; inhibition of growth at 10 µM (HT-29): 81.2%; IC50 [15]: 0.826 µM
7 | 0.24 | 2.37 | 5.23 | 2.507 | 0.07 | 8.75 | 13.5 | 3.42 | 1.26 | 4.97 | S=C(Nc1ccccc1)N1CCN(c2nnc(Cc3ccccc3)c3ccccc23)CC1 | 58.9 | 43 | 61.9 | 1.61 | 2.54 | 85.2 | 38.2 | 64.6 | 42.1 | 50.9 | inhibition of growth at 10 µM [14]: 78.4%; inhibition of growth at 10 µM (T84): 56%; inhibition of growth at 10 µM (HT-29): 20.7%; IC50 [15]: 0.947 µM
8 | 0.426 | 1.13 | 4.49 | 3.853 | 0.0884 | 3.88 | 7.98 | 4.82 | 7.95 | 3.54 | COc1cccc(NC(=S)N2CCN(c3nnc(Cc4ccccc4)c4ccccc34)CC2)c1 | 31.2 | 31.2 | 28.5 | 3.88 | 5.76 | 76.3 | 60.1 | 34.2 | 52.1 | 49.3 | inhibition of growth at 10 µM [14]: 66%; inhibition of growth at 10 µM (T84): 49.7%; inhibition of growth at 10 µM (HT-29): 60.2%; IC50 [15]: 0.705 µM
